Results: patent publication US5714347A (priority 1995, dated 1998)
Like-named read-outs stand apart in the source and are kept apart here.

What was measured:
[1] = test system: A549 human lung carcinoma cell extract; test: In vitro conjugation of 125I-UCRP to cellular proteins; format: biochemical; conditions: for inhibition of 125I-UCRP conjugation by excess unlabeled protein: isotope dilution, parallel incubations
Experimental: Confluent monolayer cultures of A549 human lung carcinoma cells were grown in Dulbecco's modified Eagle's medium supplemented with 10% (v/v) heat-inactivated fetal bovine serum. Cultures were maintained at 37° C. in a humidified 5% CO2 atmosphere. Cultures of A549 cells were induced by adding IFNβ to a final concentration of 1000 IU/ml (Loeb, K. R. and Haas, A. L., supra, 1992). Following 24 hours induction, cells were rinsed twice with PBS then harvested by scraping directly into 50 mM Tris-Cl (pH 7.6) containing 2 mMATP, 10 mM MgCl2, and 1 mM DTT (100 μl/100 mm plate). The cells were then briefly sonicated and the extracts used without further fractionation.

[2] = test system: periplasmic carboxypeptidase in E. coli BL21 (DE3) extracts; format: biochemical
Experimental: The pI shift upon incubation of ubiquitin with carboxypeptidase B was used as a convenient assay to test for carboxyl terminal glycine dipeptide processing in E. coli BL21 (DE3) extracts.
We tested a variety of metal salts for the ability to inhibit ubiquitin inactivation.

[3] = test system: A549 human lung carcinoma cell extract; conditions: previous preparations, Loeb and Haas 1992; Loeb 1993; cited from earlier work
[4] = test system: rabbit reticulocyte ubiquitin activating enzyme (E1); conditions: cited from earlier work
[5] = target: T1, ubiquitin activating enzyme (E1) (Oryctolagus cuniculus, UniProt Q29504); test: Stoichiometry and kinetics of E1-bound adenylate formation (TCA-precipitable radioactivity with [2,8-3H]ATP); format: biochemical; conditions: for [3H]adenylate formation: 1 pmol of E1, inorganic pyrophosphatase
T1 construct: from rabbit reticulocytes, rabbit liver, and human erythrocytes; from tissue; host or cells: rabbit reticulocytes (inferred for this assay)
T1 sequence (Q29504 1-1058): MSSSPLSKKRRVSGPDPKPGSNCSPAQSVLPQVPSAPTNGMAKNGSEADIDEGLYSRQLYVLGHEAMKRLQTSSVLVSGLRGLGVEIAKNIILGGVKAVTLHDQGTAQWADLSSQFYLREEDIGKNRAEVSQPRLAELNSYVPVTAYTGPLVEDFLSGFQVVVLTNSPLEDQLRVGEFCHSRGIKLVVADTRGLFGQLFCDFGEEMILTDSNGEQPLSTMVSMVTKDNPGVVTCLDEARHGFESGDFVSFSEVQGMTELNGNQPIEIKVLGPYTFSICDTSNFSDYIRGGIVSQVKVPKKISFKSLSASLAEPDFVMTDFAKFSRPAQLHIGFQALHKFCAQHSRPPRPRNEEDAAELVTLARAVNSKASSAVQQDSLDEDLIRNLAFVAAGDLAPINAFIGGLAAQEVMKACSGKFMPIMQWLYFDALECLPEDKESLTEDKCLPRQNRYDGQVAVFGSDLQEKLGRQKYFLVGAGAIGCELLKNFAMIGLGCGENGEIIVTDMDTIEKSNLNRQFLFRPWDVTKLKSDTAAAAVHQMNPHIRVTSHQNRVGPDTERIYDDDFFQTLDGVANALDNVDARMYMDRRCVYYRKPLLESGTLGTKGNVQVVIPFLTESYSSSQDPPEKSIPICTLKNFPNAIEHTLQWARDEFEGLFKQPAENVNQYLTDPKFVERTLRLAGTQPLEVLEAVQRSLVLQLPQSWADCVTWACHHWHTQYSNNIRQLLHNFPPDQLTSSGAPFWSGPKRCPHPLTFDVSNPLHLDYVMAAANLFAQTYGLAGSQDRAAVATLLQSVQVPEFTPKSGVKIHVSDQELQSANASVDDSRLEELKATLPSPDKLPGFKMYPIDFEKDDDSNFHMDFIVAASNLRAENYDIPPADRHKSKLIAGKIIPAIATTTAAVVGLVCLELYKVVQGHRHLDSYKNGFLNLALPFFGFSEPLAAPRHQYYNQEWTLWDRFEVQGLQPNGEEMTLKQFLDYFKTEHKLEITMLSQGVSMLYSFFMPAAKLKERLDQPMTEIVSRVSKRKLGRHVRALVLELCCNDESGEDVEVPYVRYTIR
Description: Recent studies by Burch and Haas have shown that mutagenesis of specific ubiquitin residues sufficiently compromises binding of the resulting adenylate within the E1 active site to allow dissociation of the intermediate (Burch, T. J. and Haas, A. L., supra, 1994). The free but not the bound pool of ubiquitin [^3 H]adenylate is sensitive to cleavage by ubiquitin carboxyl terminal hydrolase (Burch, T. J. and Haas, A. L., supra, 1994; Pickart, C. M. and Rose, I. A., J. Biol. Chem. 260:7903-7910,1985).

[6] = test system: rabbit reticulocyte ubiquitin activating enzyme (E1); format: biochemical
Experimental: The incorporation of ^32 PPi into ATP was measured by adsorbing the resulting ^32 P-labeled ATP onto charcoal and counting the bound radioactivity by Cerenkov radiation (Haas, A. L. and Rose, I. A., supra, 1982). Nonspecifically-bound ^32 PPi was corrected by subtracting radioactivity in control incubations conducted in the absence of added E1 (Haas, A. L. and Rose, I. A., supra, 1982).
Since these measurements were conducted in the absence of added AMP, the kinetic constants reflect step 3 of the E1 reaction involving formation of the final ternary complex (Haas, A. L. and Rose, I. A. J. Biol. Chem., .supra, 1982).

[7] = test system: carboxypeptidase B; test: pI shift assay (isoelectric focusing after carboxypeptidase B) for intact carboxyl terminal glycine dipeptide
Description: Previous work has shown that the carboxyl terminal glycine dipeptide of ubiquitin is acutely sensitive to cleavage by trypsin-like activities (Haas, A. L., et al., J. Biol. Chem. 260:4694-4703, 1985; Wilkinson, K. D. and Audhya, T. K., J. Biol. Chem. 256:9235-9241, 1981). […] The specificity of carboxypeptidase B for lysine and arginine precludes a similar pI shift for intact ubiquitin in which R74 is masked by the glycine dipeptide (Haas, A. L., et al., supra, 1985).

With “^125 I-UCRP: Intact UCRP isolated in the presence of CoCl2, labeled with 125I” the “dependence of conjugation on ATP and ATP regenerating system” value ([1]; both extracts) was “absolutely dependent”, the “rate of conjugation to cellular proteins” value ([1]; extracts from A549 cultures induced 24 hours with 1000 IU/ml interferon-β (+IFN), versus uninduced) was “significantly greater” and the “rate of conjugation to cellular proteins” value ([1]; extracts from uninduced cells (-IFN), 90 minutes incubation) was “low but measurable rate”.
In the case of `[Cl-].[Cl-].[Co+2]` [CoCl2], the “ubiquitin and UCRP glycine dipeptide excision” value ([2]; 5 mM) is reported as “quantitatively blocks” and the inhibiting ubiquitin inactivation ([2]; among the metal salts tested) is reported as “most effective”.
In the case of “recombinant ^125 I-UCRP: Radioiodinated recombinant UCRP of the previous, proteolytically inactivated preparations”, the “conjugation when added to fresh extracts of A549 cells” value [3] is listed as “unable to demonstrate conjugation”.
For “pure intact native UCRP: Pure intact native UCRP, K1/2 from Narasimhan et al. 1996”, the K1/2 ([4]; pure intact native UCRP, Narasimhan et al. 1996 in press) is given as 24 µM.
For `[Cl][Cd][Cl]` [CdCl2], the “inhibiting UCRP inactivation” value [2] was “effective”.
In the case of `[Cl][Hg][Cl]` [HgCl2], the “inhibiting UCRP inactivation” value [2] is reported as “effective”.
For `O=C(O)CN(CCN(CC(=O)O)CC(=O)O)CC(=O)O` [EDTA], the “rate of ubiquitin inactivation” value [2] was “stimulated”.
With ubiquitin cross-reactive protein [UCRP] the “inhibition of 125I-UCRP conjugation by excess unlabeled protein” value [1] was “marked inhibition”, the “first order rate constant of [3H]adenylate formation” value [5] was 0.42 min⁻¹ and the “[3H]adenylate formation” value ([5]; after 5 minutes) was 0.11 pmol. The K1/2 [6] was 24 µM and the substrate inhibition [6] was “no substrate inhibition”.
For ubiquitin, the “inhibition of 125I-UCRP conjugation by excess unlabeled protein” value [1] was “not”, the “first order rate constant of [3H]adenylate formation” value [5] was ≥ 6 min⁻¹ and the “[3H]adenylate formation” value ([5]; within a 1 minute incubation) was “equivalent amount”. The K1/2 ([4]; step 3 of ubiquitin-supported reaction, values taken from Haas and Rose 1982) was 1.2 µM, the substrate inhibition ([4]; ubiquitin at high concentrations, Haas and Rose 1982) was “pronounced substrate inhibition” and the kcat ([4]; ubiquitin-supported reaction, values taken from Haas and Rose 1982) was 9.6 s⁻¹.
In the case of “UCRP generated from UCRP-R: Intact UCRP resulting from removal of the arginine cap of purified UCRP-R”, the “pI shift upon incubation with carboxypeptidase B” value [7] is reported as “absence of a pI shift” and the K1/2 ([6]; UCRP 5 to 50 μM, 20 nM E1, 37° C., absence of added AMP (step 3)) is reported as 24 µM.
